Reference: PubChem BioAssay AID192 (DTP/NCI, 2004)
“And” between values parts separate entries of the source, which are not always exact repeats. Identical values can stand only once. Toxic doses and inconclusive results are not listed. Numbered stars: 1 amine (or outer) side, 2 acyl side, 3 side chain; on linkers, the order of the positions; unused ones are H or OH. Bridge positions count the residues as written; N and C are the ends. Square brackets hold non-standard residues; d marks the D form. Peptide text beside a SMILES is read from it. I, II: the chains in the order shown. Actinocin(1to9) = Cc1c2oc3c(C)ccc(C(=O)[*:2])c3nc-2c(C(=O)[*:1])c(N)c1=O; Hyp = O=C(O)[CH]1C[CH](O)CN1; NMeV = CN[CH](C(=O)O)C(C)C; Sar = CNCC(=O)O

Tested on: BDF1 mice, B16 melanoma ip, median survival T/C
Assay: NCI In Vivo Anticancer Drug Screen. Data for tumor model B16 Melanoma (intraperitoneal) in B6D2F1 (BDF1) mice
Settings: endpoint: median survival time, higher = longer survival
Summary of the method: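 Compounds were tested in mice carrying transplantable tumors. Survival or tumor size was recorded, and each value is the treated-group measurement (T) divided by that of the vehicle-treated control group (C).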

[1] = dose: 12.5 mg/kg/injection, schedule: Q01DX009 (ip), vehicle: saline with Tween-80
[2] = dose: 25.0 mg/kg/injection, schedule: Q01DX009 (ip), vehicle: saline with Tween-80
[3] = dose: 50.0 mg/kg/injection, schedule: Q01DX009 (ip), vehicle: saline with Tween-80
[4] = dose: 200.0 mg/kg/injection, schedule: Q01DX009 (ip), vehicle: saline with Tween-80
[5] = dose: 400.0 mg/kg/injection, schedule: Q01DX009 (ip), vehicle: saline with Tween-80
[6] = dose: 100.0 mg/kg/injection, schedule: Q01DX009 (ip), vehicle: saline with Tween-80
[7] = dose: 50.0 mg/kg/injection, schedule: Q01DX009 (ip), vehicle: saline
[8] = dose: 100.0 mg/kg/injection, schedule: Q01DX009 (ip), vehicle: saline

For `Oc1ccccc1OCc1ccccc1`, the T/C (dose: 100.0 mg/kg/injection, schedule: Q04DX003 (ip), vehicle: Klucel (hydroxypropylcellulose) (HPC)) was 107 % of control, the T/C (dose: 200.0 mg/kg/injection, schedule: Q04DX003 (ip), vehicle: Klucel (hydroxypropylcellulose) (HPC)) was 105 % of control and the T/C (dose: 400.0 mg/kg/injection, schedule: Q04DX003 (ip), vehicle: Klucel (hydroxypropylcellulose) (HPC)) was 105 % of control.
In the case of `Cc1c2oc3c(C)ccc(C(=O)NC4C(=O)NC(C(C)C)C(=O)N5CCCC5C(=O)N(C)CC(=O)N(C)C(C(C)C)C(=O)OC4C)c3nc-2c(C(=O)NC2C(=O)NC(C(C)C)C(=O)N3CC(O)CC3C(=O)N(C)CC(=O)N(C)C(C(C)C)C(=O)OC2C)c(N)c1=O` (stereo unspecified) (I: TV[Hyp][Sar][NMeV] / II: TVP[Sar][NMeV]; ester I:1-I:C, II:1-II:C; linker I:N-II:N via Actinocin(1to9); configuration not given here), the T/C (dose: 100.0 micrograms/kg/injection, schedule: Q01DX009 (ip), vehicle: saline + alcohol) is reported as 152 % of control, the T/C (dose: 150.0 micrograms/kg/injection, schedule: Q01DX009 (ip), vehicle: saline + alcohol) is reported as 158 % of control and the T/C (dose: 225.0 micrograms/kg/injection, schedule: Q04DX003 (ip), vehicle: saline + alcohol) is reported as 120 % of control. For the same molecule, the T/C (dose: 450.0 micrograms/kg/injection, schedule: Q04DX003 (ip), vehicle: saline + alcohol) was 121 % of control, the T/C (dose: 600.0 micrograms/kg/injection, schedule: Q04DX003 (ip), vehicle: saline + alcohol) was 95 % of control and the T/C (dose: 900.0 micrograms/kg/injection, schedule: Q04DX003 (ip), vehicle: saline + alcohol) was 88 % of control.
`COc1ccc(-c2csc(=[N+]3CCCCC3)s2)cc1` was tested, and the T/C (dose: 1.56 mg/kg/injection, schedule: Q01DX009 (ip), vehicle: water) was 94 % of control and 95 % of control, the T/C (dose: 3.12 mg/kg/injection, schedule: Q01DX009 (ip), vehicle: water) was 90 % of control and 101 % of control and the T/C (dose: 6.25 mg/kg/injection, schedule: Q01DX009 (ip), vehicle: water) was 101 % of control and 102 % of control. The T/C (dose: 12.5 mg/kg/injection, schedule: Q01DX009 (ip), vehicle: water) was 103 % of control and 109 % of control and the T/C (dose: 25.0 mg/kg/injection, schedule: Q01DX009 (ip), vehicle: water) was 86 % of control and 110 % of control.
In the case of `O=C(NCCCl)NCCCl`, the T/C (dose: 5.0 mg/kg/injection, schedule: Q01DX009 (ip), vehicle: Klucel (hydroxypropylcellulose) (HPC)) is reported as 94 % of control, the T/C (dose: 10.0 mg/kg/injection, schedule: Q01DX009 (ip), vehicle: Klucel (hydroxypropylcellulose) (HPC)) is reported as 102 % of control and the T/C [1] is reported as 95 % of control. The T/C (dose: 20.0 mg/kg/injection, schedule: Q01DX009 (ip), vehicle: Klucel (hydroxypropylcellulose) (HPC)) was 88 % of control, the T/C [2] was 95 % of control and the T/C (dose: 40.0 mg/kg/injection, schedule: Q01DX009 (ip), vehicle: Klucel (hydroxypropylcellulose) (HPC)) was 91 % of control. The T/C [3] was 100 % of control, the T/C (dose: 80.0 mg/kg/injection, schedule: Q01DX009 (ip), vehicle: Klucel (hydroxypropylcellulose) (HPC)) was 102 % of control and the T/C (dose: 160.0 mg/kg/injection, schedule: Q01DX009 (ip), vehicle: Klucel (hydroxypropylcellulose) (HPC)) was 94 % of control. For the same molecule, the T/C [4] was 95 % of control, the T/C (dose: 320.0 mg/kg/injection, schedule: Q01DX009 (ip), vehicle: Klucel (hydroxypropylcellulose) (HPC)) was 91 % of control and the T/C [5] was 102 % of control.
With `C=C1C(=O)OC2CC(C)C3C=CC(=O)C3CC12` (stereo unspecified) the T/C (dose: 0.5 mg/kg/injection, schedule: Q01DX009 (ip), vehicle: Klucel (hydroxypropylcellulose) (HPC)) was 101 % of control, the T/C (dose: 1.0 mg/kg/injection, schedule: Q01DX009 (ip), vehicle: Klucel (hydroxypropylcellulose) (HPC)) was 109 % of control and the T/C (dose: 2.0 mg/kg/injection, schedule: Q01DX009 (ip), vehicle: Klucel (hydroxypropylcellulose) (HPC)) was 101 % of control.
With `Nc1ccc(OCc2ccccc2)cc1` the T/C [2] was 109 % of control.
`CCOC12c3ccccc3N(S(C)(=O)=O)C(C)C1C2(Br)Br` (stereo unspecified) was tested, and the T/C (dose: 75.0 mg/kg/injection, schedule: Q04DX003 (ip), vehicle: Klucel (hydroxypropylcellulose) (HPC)) was 104 % of control, the T/C (dose: 150.0 mg/kg/injection, schedule: Q04DX003 (ip), vehicle: Klucel (hydroxypropylcellulose) (HPC)) was 87 % of control and the T/C (dose: 300.0 mg/kg/injection, schedule: Q04DX003 (ip), vehicle: Klucel (hydroxypropylcellulose) (HPC)) was 107 % of control.
For `O=C(Cl)c1ccc(OC(Cl)(Cl)Cl)cc1`, the T/C (dose: 100.0 mg/kg/injection, schedule: Q01DX009 (ip), vehicle: Klucel (hydroxypropylcellulose) (HPC)) was 100 % of control, the T/C (dose: 200.0 mg/kg/injection, schedule: Q01DX009 (ip), vehicle: Klucel (hydroxypropylcellulose) (HPC)) was 93 % of control and the T/C (dose: 400.0 mg/kg/injection, schedule: Q01DX009 (ip), vehicle: Klucel (hydroxypropylcellulose) (HPC)) was 86 % of control.
In the case of `CCOC(=O)C(=CN1CCCC1)C(=O)OCC`, the T/C [6] is reported as 102 % of control, the T/C (dose: 100.0 mg/kg/injection, schedule: Q04DX003 (ip), vehicle: saline with Tween-80) is reported as 120 % of control and the T/C [4] is reported as 105 % of control. For the same molecule, the T/C (dose: 200.0 mg/kg/injection, schedule: Q04DX003 (ip), vehicle: saline with Tween-80) was 117 % of control, the T/C [5] was 91 % of control and the T/C (dose: 400.0 mg/kg/injection, schedule: Q04DX003 (ip), vehicle: saline with Tween-80) was 111 % of control.
With `COc1ccc(C(=O)c2no[n+]([O-])c2C(=O)c2ccc(OC)cc2)cc1` the T/C [1] was 95 % of control, the T/C [2] was 107 % of control and the T/C [3] was 101 % of control. The T/C [6] was 95 % of control, the T/C [4] was 87 % of control and the T/C [5] was 113 % of control.
For `COc1cccc(CC(C)[N+](=O)[O-])c1` (stereo unspecified), the T/C (dose: 45.0 mg/kg/injection, schedule: Q01DX009 (ip), vehicle: saline with Tween-80) was 109 % of control, the T/C (dose: 90.0 mg/kg/injection, schedule: Q01DX009 (ip), vehicle: saline with Tween-80) was 100 % of control and the T/C (dose: 180.0 mg/kg/injection, schedule: Q01DX009 (ip), vehicle: saline with Tween-80) was 86 % of control.
For `C[C@]12CCC(=O)C=C1CC[C@@H]1[C@@H]2[C@@H](O)C[C@@]2(C)[C@H]1CC[C@]2(O)C(=O)CO`, the T/C (dose: 40.0 mg/kg/injection, schedule: Q02DX009 (ip), vehicle: Klucel (hydroxypropylcellulose) (HPC)) was 87 % of control, the T/C (dose: 80.0 mg/kg/injection, schedule: Q02DX009 (ip), vehicle: Klucel (hydroxypropylcellulose) (HPC)) was 102 % of control and the T/C (dose: 160.0 mg/kg/injection, schedule: Q02DX009 (ip), vehicle: Klucel (hydroxypropylcellulose) (HPC)) was 92 % of control.
In the case of `Nc1ccc(N2CCNCC2)cc1`, the T/C [7] is reported as 108 % of control, the T/C [8] is reported as 97 % of control and the T/C (dose: 200.0 mg/kg/injection, schedule: Q01DX009 (ip), vehicle: saline) is reported as 100 % of control.
For `O=C1NC(=O)C(=Cc2cc3c(cc2Br)OCO3)C(=O)N1`, the T/C [1] was 97 % of control, the T/C [2] was 94 % of control and the T/C [3] was 94 % of control.
In the case of `O=[N+]([O-])c1ccc(C=C2C(Cl)=C(Cl)C(Cl)=C2Cl)cc1`, the T/C (dose: 3.13 mg/kg/injection, schedule: Q01DX009 (ip), vehicle: saline with Tween-80) is reported as 101 % of control, the T/C (dose: 6.25 mg/kg/injection, schedule: Q01DX009 (ip), vehicle: saline with Tween-80) is reported as 91 % of control and the T/C [1] is reported as 89 % of control.
With `CCO/C=C1\SC(=S)N(c2ccco2)C1=O` the T/C (dose: 25.0 mg/kg/injection, schedule: Q01DX009 (ip), vehicle: saline) was 111 % of control, the T/C (dose: 25.0 mg/kg/injection, schedule: Q04DX003 (ip), vehicle: saline) was 116 % of control and the T/C [7] was 98 % of control. For the same molecule, the T/C (dose: 50.0 mg/kg/injection, schedule: Q04DX003 (ip), vehicle: saline) was 105 % of control, the T/C [8] was 117 % of control and the T/C (dose: 100.0 mg/kg/injection, schedule: Q04DX003 (ip), vehicle: saline) was 116 % of control. The T/C (dose: 200.0 mg/kg/injection, schedule: Q04DX003 (ip), vehicle: saline) was 102 % of control.
For `NC(=O)NC1CCCCCCC1`, the T/C [6] was 100 % of control, the T/C [4] was 93 % of control and the T/C [5] was 104 % of control.
`CCCCCCCCCCCc1n(Cc2ccccc2)cc[n+]1C` was tested, and the T/C (dose: 0.75 mg/kg/injection, schedule: Q01DX009 (ip), vehicle: saline) was 86 % of control, the T/C (dose: 1.5 mg/kg/injection, schedule: Q01DX009 (ip), vehicle: saline) was 90 % of control and the T/C (dose: 3.0 mg/kg/injection, schedule: Q01DX009 (ip), vehicle: saline) was 97 % of control.
For `C/C=C/c1cc2n(c1)C(=O)c1cc(OC3OC(C)C(NC)C(C)(O)C3O)c(C)c(O)c1NC2O` (stereo unspecified), the T/C (dose: 0.02 mg/kg/injection, schedule: Q04DX003 (ip), vehicle: DMSO) was 168 % of control, the T/C (dose: 0.5 micrograms/kg/injection, schedule: Q04DX003 (ip), vehicle: saline) was 184 % of control and the T/C (dose: 1.0 micrograms/kg/injection, schedule: Q04DX003 (ip), vehicle: saline) was 184 % of control. The T/C (dose: 2.0 micrograms/kg/injection, schedule: Q04DX003 (ip), vehicle: saline) was 197 % of control and the T/C (dose: 16.0 micrograms/kg/injection, schedule: Q04DX003 (ip), vehicle: saline) was 151 % of control.
